Results published in the NIST ThermoML archive (doi:10.1016/j.tca.2010.11.013).
± gives the expanded uncertainty stated by the source.

Test: wn = mass fraction of the nth substance listed
Conditions: 101 kPa, Liquid; for speed of sound: Sing-around technique in a fixed-path interferometer; for mass density: Vibrating tube method

SMILES: OC[C@H]1O[C@@](CO)(O[C@H]2O[C@H](CO)[C@@H](O)[C@H](O)[C@H]2O)[C@@H](O)[C@@H]1O [D-sucrose] + O
- speed of sound (288.15 K, w1 = 0.0214): 1473.1 ± 1.9 m/s
- speed of sound (288.15 K, w1 = 0.0419): 1479.3 ± 1.9 m/s
- speed of sound (288.15 K, w1 = 0.0614): 1486.3 ± 1.9 m/s
- mass density (288.15 K, w1 = 0.0214): 1007.5 ± 0.62 kg/m3
- mass density (288.15 K, w1 = 0.0419): 1015.59 ± 0.63 kg/m3
- mass density (288.15 K, w1 = 0.0614): 1023.45 ± 0.65 kg/m3
- speed of sound (293.15 K, w1 = 0.0214): 1489 ± 1.9 m/s
- speed of sound (293.15 K, w1 = 0.0419): 1495.1 ± 1.9 m/s
- speed of sound (293.15 K, w1 = 0.0614): 1501.8 ± 1.9 m/s
- mass density (293.15 K, w1 = 0.0214): 1006.55 ± 0.62 kg/m3
- mass density (293.15 K, w1 = 0.0419): 1014.59 ± 0.63 kg/m3
- mass density (293.15 K, w1 = 0.0614): 1022.4 ± 0.65 kg/m3
- speed of sound (298.15 K, w1 = 0.0214): 1503 ± 1.9 m/s
- speed of sound (298.15 K, w1 = 0.0419): 1508.8 ± 1.9 m/s
- speed of sound (298.15 K, w1 = 0.0614): 1515.3 ± 1.9 m/s
- mass density (298.15 K, w1 = 0.0214): 1005.34 ± 0.62 kg/m3
- mass density (298.15 K, w1 = 0.0419): 1013.33 ± 0.63 kg/m3
- mass density (298.15 K, w1 = 0.0614): 1021.1 ± 0.64 kg/m3
- speed of sound (303.15 K, w1 = 0.0214): 1515.1 ± 1.9 m/s
- speed of sound (303.15 K, w1 = 0.0419): 1520.5 ± 1.9 m/s
- speed of sound (303.15 K, w1 = 0.0614): 1526.8 ± 1.9 m/s
- mass density (303.15 K, w1 = 0.0214): 1003.89 ± 0.62 kg/m3
- mass density (303.15 K, w1 = 0.0419): 1011.85 ± 0.63 kg/m3
- mass density (303.15 K, w1 = 0.0614): 1019.58 ± 0.64 kg/m3
- speed of sound (308.15 K, w1 = 0.0214): 1525.3 ± 1.9 m/s
- speed of sound (308.15 K, w1 = 0.0419): 1530.4 ± 1.9 m/s
- speed of sound (308.15 K, w1 = 0.0614): 1536.7 ± 1.9 m/s
- mass density (308.15 K, w1 = 0.0214): 1002.24 ± 0.61 kg/m3
- mass density (308.15 K, w1 = 0.0419): 1010.16 ± 0.63 kg/m3
- mass density (308.15 K, w1 = 0.0614): 1017.85 ± 0.64 kg/m3

SMILES: O=C(CO)[C@@H](O)[C@H](O)[C@H](O)CO [D-fructose] + O
- speed of sound (288.15 K, w1 = 0.0209): 1476.2 ± 1.6 m/s
- speed of sound (288.15 K, w1 = 0.0389): 1483.1 ± 1.6 m/s
- mass density (288.15 K, w1 = 0.0389): 1014.62 ± 0.42 kg/m3
- mass density (288.15 K, w1 = 0.0611): 1023.64 ± 0.43 kg/m3
- speed of sound (293.15 K, w1 = 0.0209): 1492 ± 1.6 m/s
- speed of sound (293.15 K, w1 = 0.0389): 1498.5 ± 1.6 m/s
- speed of sound (293.15 K, w1 = 0.0611): 1507.8 ± 1.6 m/s
- mass density (293.15 K, w1 = 0.0389): 1013.56 ± 0.42 kg/m3
- mass density (293.15 K, w1 = 0.0611): 1022.5 ± 0.43 kg/m3
- speed of sound (298.15 K, w1 = 0.0389): 1512 ± 1.6 m/s
- speed of sound (298.15 K, w1 = 0.0611): 1520.8 ± 1.6 m/s
- mass density (298.15 K, w1 = 0.0209): 1005.17 ± 0.41 kg/m3
- mass density (298.15 K, w1 = 0.0389): 1012.26 ± 0.42 kg/m3
- mass density (298.15 K, w1 = 0.0611): 1021.11 ± 0.43 kg/m3
- speed of sound (303.15 K, w1 = 0.0209): 1517.3 ± 1.6 m/s
- speed of sound (303.15 K, w1 = 0.0611): 1531.8 ± 1.6 m/s
- mass density (303.15 K, w1 = 0.0209): 1003.7 ± 0.41 kg/m3
- mass density (303.15 K, w1 = 0.0611): 1019.51 ± 0.42 kg/m3
- speed of sound (308.15 K, w1 = 0.0209): 1527 ± 1.6 m/s
- speed of sound (308.15 K, w1 = 0.0389): 1533.2 ± 1.6 m/s
- mass density (308.15 K, w1 = 0.0209): 1002.02 ± 0.41 kg/m3
- mass density (308.15 K, w1 = 0.0389): 1009 ± 0.41 kg/m3
- mass density (308.15 K, w1 = 0.0611): 1017.71 ± 0.42 kg/m3
